Measured values published in the supplement of paper PMC10307832.

Experiments:
Assay in all cases: relative viability (nuclei count vs DMSO), 5 days (fraction); higher = more cells survive
PC-14 = test system: PC-14
Summary of the method: (§1)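 Lung cancer cell lines in 1536-well plates got either a single drug or a fixed anchor-drug dose together with five library-drug doses (not always all listed) in √10 steps, by pin tool, on the day after seeding. Nuclei were counted after 5 days, and relative viability is the treated-to-vehicle ratio of nuclei counts. Values are medians of duplicate plates.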

NCI-H2405 = test system: NCI-H2405
Summary of the method: as §1

NCI-H23 = test system: NCI-H23
Summary of the method: as §1

H3255 = test system: H3255
Summary of the method: as §1

NCI-H647 = test system: NCI-H647
Summary of the method: as §1

NCI-H650 = test system: NCI-H650
Summary of the method: as §1

EPLC-272H = test system: EPLC-272H
Summary of the method: as §1

HCC-827 = test system: HCC-827
Summary of the method: as §1

NCI-H2126 = test system: NCI-H2126
Summary of the method: as §1

NCI-H2087 = test system: NCI-H2087
Summary of the method: as §1

LC-2-ad = test system: LC-2-ad
Summary of the method: as §1

NCI-H661 = test system: NCI-H661
Summary of the method: as §1

NCI-H1666 = test system: NCI-H1666
Summary of the method: as §1

ChaGo-K-1 = test system: ChaGo-K-1
Summary of the method: as §1

NCI-H520 = test system: NCI-H520
Summary of the method: as §1

NCI-H2347 = test system: NCI-H2347
Summary of the method: as §1

HCC-78 = test system: HCC-78
Summary of the method: as §1

RERF-LC-KJ = test system: RERF-LC-KJ
Summary of the method: as §1

201T = test system: 201T
Summary of the method: as §1

NCI-H1915 = test system: NCI-H1915
Summary of the method: as §1

LCLC-97TM1 = test system: LCLC-97TM1
Summary of the method: as §1

COR-L 105 = test system: COR-L 105
Summary of the method: as §1

Nc1ccn([C@@H]2O[C@H](CO)[C@@H](O)[C@@H]2O)c(=O)n1 [Cytarabine] + CC(=O)c1c(C)c2cnc(Nc3ccc(N4CCNCC4)cn3)nc2n(C2CCCC2)c1=O [Palbociclib] (partner 0.5 µM)
relative viability (PC-14; first compound 0.005 µM): 0.432
relative viability (PC-14; first compound 0.01581 µM): 0.366
relative viability (PC-14; first compound 0.05 µM): 0.365
relative viability (PC-14; first compound 0.1581 µM): 0.0885
relative viability (PC-14; first compound 0.5 µM): 0.0651
relative viability (NCI-H2405; first compound 0.005 µM): 0.518
relative viability (NCI-H2405; first compound 0.01581 µM): 0.449
relative viability (NCI-H2405; first compound 0.05 µM): 0.367
relative viability (NCI-H2405; first compound 0.1581 µM): 0.275
relative viability (NCI-H2405; first compound 0.5 µM): 0.234
relative viability (NCI-H23; first compound 0.005 µM): 0.617
relative viability (NCI-H23; first compound 0.01581 µM): 0.367
relative viability (NCI-H23; first compound 0.05 µM): 0.299
relative viability (NCI-H23; first compound 0.1581 µM): 0.193
relative viability (NCI-H23; first compound 0.5 µM): 0.169
relative viability (H3255; first compound 0.005 µM): 0.33
relative viability (H3255; first compound 0.01581 µM): 0.32
relative viability (H3255; first compound 0.05 µM): 0.281
relative viability (H3255; first compound 0.1581 µM): 0.265
relative viability (H3255; first compound 0.5 µM): 0.261
relative viability (NCI-H647; first compound 0.005 µM): 0.316
relative viability (NCI-H647; first compound 0.01581 µM): 0.206
relative viability (NCI-H647; first compound 0.05 µM): 0.207
relative viability (NCI-H647; first compound 0.1581 µM): 0.0933
relative viability (NCI-H647; first compound 0.5 µM): 0.0634
relative viability (NCI-H650; first compound 0.005 µM): 0.238
relative viability (NCI-H650; first compound 0.01581 µM): 0.227
relative viability (NCI-H650; first compound 0.05 µM): 0.159
relative viability (NCI-H650; first compound 0.1581 µM): 0.157
relative viability (NCI-H650; first compound 0.5 µM): 0.175
relative viability (EPLC-272H; first compound 0.005 µM): 0.319
relative viability (EPLC-272H; first compound 0.01581 µM): 0.29
relative viability (EPLC-272H; first compound 0.05 µM): 0.281
relative viability (EPLC-272H; first compound 0.1581 µM): 0.249
relative viability (EPLC-272H; first compound 0.5 µM): 0.219
relative viability (HCC-827; first compound 0.005 µM): 0.347
relative viability (HCC-827; first compound 0.01581 µM): 0.317
relative viability (HCC-827; first compound 0.05 µM): 0.19
relative viability (HCC-827; first compound 0.1581 µM): 0.173
relative viability (HCC-827; first compound 0.5 µM): 0.14
relative viability (NCI-H2126; first compound 0.005 µM): 0.352
relative viability (NCI-H2126; first compound 0.01581 µM): 0.312
relative viability (NCI-H2126; first compound 0.05 µM): 0.298
relative viability (NCI-H2126; first compound 0.1581 µM): 0.277
relative viability (NCI-H2126; first compound 0.5 µM): 0.261
relative viability (NCI-H2087; first compound 0.005 µM): 0.23
relative viability (NCI-H2087; first compound 0.01581 µM): 0.215
relative viability (NCI-H2087; first compound 0.05 µM): 0.231
relative viability (NCI-H2087; first compound 0.1581 µM): 0.167
relative viability (NCI-H2087; first compound 0.5 µM): 0.205
relative viability (LC-2-ad; first compound 0.005 µM): 0.412
relative viability (LC-2-ad; first compound 0.01581 µM): 0.417
relative viability (LC-2-ad; first compound 0.05 µM): 0.505
relative viability (LC-2-ad; first compound 0.1581 µM): 0.379
relative viability (LC-2-ad; first compound 0.5 µM): 0.412
relative viability (NCI-H661; first compound 0.005 µM): 0.429
relative viability (NCI-H661; first compound 0.01581 µM): 0.393
relative viability (NCI-H661; first compound 0.05 µM): 0.377
relative viability (NCI-H661; first compound 0.1581 µM): 0.353
relative viability (NCI-H661; first compound 0.5 µM): 0.251
relative viability (NCI-H1666; first compound 0.005 µM): 0.611
relative viability (NCI-H1666; first compound 0.01581 µM): 0.573
relative viability (NCI-H1666; first compound 0.05 µM): 0.627
relative viability (NCI-H1666; first compound 0.1581 µM): 0.511
relative viability (NCI-H1666; first compound 0.5 µM): 0.575
relative viability (ChaGo-K-1; first compound 0.005 µM): 0.71
relative viability (ChaGo-K-1; first compound 0.01581 µM): 0.598
relative viability (ChaGo-K-1; first compound 0.05 µM): 0.461
relative viability (ChaGo-K-1; first compound 0.1581 µM): 0.276
relative viability (ChaGo-K-1; first compound 0.5 µM): 0.229
relative viability (NCI-H520; first compound 0.005 µM): 0.234
relative viability (NCI-H520; first compound 0.01581 µM): 0.223
relative viability (NCI-H520; first compound 0.05 µM): 0.199
relative viability (NCI-H520; first compound 0.1581 µM): 0.177
relative viability (NCI-H520; first compound 0.5 µM): 0.201
relative viability (NCI-H2347; first compound 0.005 µM): 0.416
relative viability (NCI-H2347; first compound 0.01581 µM): 0.433
relative viability (NCI-H2347; first compound 0.05 µM): 0.413
relative viability (NCI-H2347; first compound 0.1581 µM): 0.386
relative viability (NCI-H2347; first compound 0.5 µM): 0.407
relative viability (HCC-78; first compound 0.005 µM): 0.492
relative viability (HCC-78; first compound 0.01581 µM): 0.42
relative viability (HCC-78; first compound 0.05 µM): 0.393
relative viability (HCC-78; first compound 0.1581 µM): 0.366
relative viability (HCC-78; first compound 0.5 µM): 0.361
relative viability (RERF-LC-KJ; first compound 0.005 µM): 0.858
relative viability (RERF-LC-KJ; first compound 0.01581 µM): 0.882
relative viability (RERF-LC-KJ; first compound 0.05 µM): 0.819
relative viability (RERF-LC-KJ; first compound 0.1581 µM): 0.517
relative viability (RERF-LC-KJ; first compound 0.5 µM): 0.41
relative viability (201T; first compound 0.005 µM): 0.369
relative viability (201T; first compound 0.01581 µM): 0.335
relative viability (201T; first compound 0.05 µM): 0.356
relative viability (201T; first compound 0.1581 µM): 0.271
relative viability (201T; first compound 0.5 µM): 0.31
relative viability (NCI-H1915; first compound 0.005 µM): 0.532
relative viability (NCI-H1915; first compound 0.01581 µM): 0.47
relative viability (NCI-H1915; first compound 0.05 µM): 0.37
relative viability (NCI-H1915; first compound 0.1581 µM): 0.265
relative viability (NCI-H1915; first compound 0.5 µM): 0.2
relative viability (LCLC-97TM1; first compound 0.005 µM): 0.186
relative viability (LCLC-97TM1; first compound 0.01581 µM): 0.135
relative viability (LCLC-97TM1; first compound 0.05 µM): 0.198
relative viability (LCLC-97TM1; first compound 0.1581 µM): 0.124
relative viability (LCLC-97TM1; first compound 0.5 µM): 0.0884
relative viability (COR-L 105; first compound 0.005 µM): 0.37
relative viability (COR-L 105; first compound 0.01581 µM): 0.37
relative viability (COR-L 105; first compound 0.05 µM): 0.27
relative viability (COR-L 105; first compound 0.1581 µM): 0.351
relative viability (COR-L 105; first compound 0.5 µM): 0.324
